In patent publication US6613317B1, “Volatile attractants for diabrotica species” (priority 1988, dated 2003):
Marks after values point to notes of the source that are not given here.

What was measured:
[1] = system: southern corn rootworm (SCR) adults; test: Sticky trap attraction in sweet corn plots (Example 1); assay type: in vivo, Diabrotica undecimpunctata howardi; details: for Mean number of SCR per trap (±standard deviation): n = 4
Experimental: (§1) The attraction of Diabrotica species to single-component and multicomponent lures was evaluated in corn fields. The field experiments on attraction of SCR and WCR adults were conducted in 0.405-ha (1-acre) plots of “Illini Xtra Sweet” corn grown on the University of Illinois South Farms at Urbana, Ill., over a two year period. Most of the tests were conducted in August to correspond with the peak silk-feeding and oviposition periods of corn rootworm adults in central Illinois. In both years, the sweet corn plot was adjacent to a 0.405-ha trap crop of C. maxima cultivar “Blue Hubbard”, to provide high densitites of SCR and WCR adults in the corn plots (Howe, et al., Environ. Entomol., 5:745-751 (1976), Lampman, et al., J. Chem. Ecol., 13:959-975 (1987).
(§2) Attraction of Diabrotica species to volatile compounds was measured by the average number of beetles cought during a 24-h period on 1.0-liter cylindrical paper cartons (15.2 cm high, 27.9 cm circumference) which were evenly coated with clear insect adhesive, TangleTrap™ (Tanglefood Co., Grand Rapids, Mich.) The candidate attractants were applied by capillary micropiettes to cotton dental wicks (13 mm long by 6 mm diameter) that were previously impregnated with mineral oil to prolong volatilization. The chemicals were purchased from Aldrich Chemical Co., (Milwaukee, Wis.) and assayed by gas chromatography as >97% pure. Indole, a solid at ambient temperatures (m.p. 52-54° C.), was dissolved in glass-distilled acetone before dosing the cotton wicks. For dosage-acticity tests, the various components were mixed in equal quantities by weight and diluted to the appropriate dosage with acetone. Treated and untreated (control) wicks were attached to the top of the paper cartons with TangleTrap™ and the inverted traps were placed on 1-m-high posts between the sweet corn rows. Four replicates of each treatment and a control were conducted in a randomized complete block desgin. The sticky traps within a block (ca. 50-m row of corn) were 5-10 m apart (depending on the number of treatments in a particular test) and the blocks were 3 m apart. The traps were baited and placed in the field between 1000 and 1300 hours and beetle counts were taken after 24 h. The significance of treatments was determined by analysis of variance and the individual means were separated by Duncan's multiple range test (Statistical Package for Social Sciences (SPSS) (Nie, et al., SPSS: statistical package for the social sciences, 2nd ed. McGraw-Hill, N.Y. (1975)). Student's t test was used for comparisons of two means (Sokal, et al., Biometry, Freeman, San Francisco (1969). Significance levels were set at P=0.05 at all statistical analyses.
(§3) The initial field test in August of the first year evaluated the response of SCR and WCR adults of a mixture of veratrole (V), indole (I), phenylacetaldehyde (P), trans-anethole (A), and eugenol (E) (=VIPAE mixture), as well as to the individual components. Each component in the VIPAE mixture was present at a dosage of 20 mg per trap and was compared with the individual components at 100 mg per trap. The response of SCR and WCR adults to a range of VIPAE doses, 1-300 mg, was conducted on the following day. Fifty SCR adults were removed from each 100-mg VIPAE trap, and returned to the laboratory for sex determination. Additional analyses in August evaluated the reduction in trap catches produced by the sequential removal of the individual components from the VIPAE lure. After the primary components of the initial lure were determined, a modified multicomponent lure consisting of veratrole, indole, and phenylacetaldehyde (=VIP mixture) was compared with its individual components to determine whether the attraction of SCR adults was the result of interactive or additive factors. The attraction and synergistic response of SCR adults of the VIP mixture was verified by tests conducted in August of the following year. […]

[2] = system: western corn rootworm (WCR) adults; test: as above; assay type: in vivo, Diabrotica virgifera virgifera; details: for Mean number of WCR per trap (±standard deviation): n = 4
Experimental: as §1, §2, §3

SCR = test: Limit of response rating of squash blossom volatiles on sticky traps (Example 5); assay type: in vivo, Diabrotica undecimpunctata howardi; details: 24 hour; four replicate traps; 0.01 mg to 200 mg
Experimental: (§4) Over 40 individual volatile chemicals have been isolated from Cucurbita maxima blossoms and circa 25 of these have been unequivocally identified (Andersen, J. F., J. Agric. Food Chem., 35:60-62 (1987): Andersen, J. F. and Metcalf, R. L., J. Chem. Ecol., 12:687-699 (1986)). The major odor components were evaluated as potential attractants for adult Diabrotica species using cylindrical sticky traps baited with dental cotton wicks (Metcalf, R. L., and Lampman, R. L., Paper submitted to J. Econ. Entomol., (1988)) containing from 0.01 mg to 200 mg of volatile compound.

WCR = test: as above; assay type: in vivo, Diabrotica virgifera virgifera; details: 24 hour; four replicate traps; 0.01 mg to 200 mg
Experimental: as §4

NCR = test: as above; assay type: in vivo, Diabrotica barberi; details: 24 hour; four replicate traps; 0.01 mg to 200 mg
Experimental: as §4

[3] = system: western corn rootworm (WCR) adults; test: Sticky trap attraction in corn, estragole analogues (Example 3); assay type: in vivo, Diabrotica virgifera virgifera; details: 100 mg per trap, n = 4; for Mean number of WCR per sticky trap after 24 hours: August 5 (Table 10)
Experimental: (§5) Test chemicals were applied by capillary micropipettes to cotton dental wicks that were attached to tops of 1.0 liter cylindrical paper cartons covered with TangleTrap™, Grand Rapids, Mich. The trapping techniques used were as previously described in Example 1. Cinnamyl alcohol, 4-methoxycinnamaldehyde, cinnamyl acetate, and 4-(4′methoxyphenyl)-3-butene-2-one which are solids at ambient temperature were prepared as standard w/v solutions in acetone prior to dosing the cotton wicks. All treatments were made at a dosage of 100 mg or 100 μL of attractant per trap. Control traps had untreated wicks. Four replicates of treated and untreated traps were positioned randomly 10 meters apart on top of 1 m high posts along the edges of 25-50 ha. fields of hybrid corn (Zea mays), infested with adult NCR, SCR, and WCR beetles. Several experiments detailed in the Tables were made in a 0.4 ha plot of sweet corn (Illini X-tra Sweet).
(§6) Attraction of Diabrotica species adults of the sticky traps was measured by the mean number of beetles caught after 1 day (ca. 24 hours) exposure. The significance of the treatments was determined by analysis of variance and the individual means were separated by Duncan's multiple range test (Statistical Package for the Social Sciences, Nie, et al., 2nd. ed. McGraw-Hill, New York (1975). The data was logarithmically transformed for statistical analysis. Means and standard deviations are presented for the untransformed data. Significance levels were set at P=0.05 for all statistical analyses.

[4] = system: northern corn rootworm (NCR) adults; test: as above; assay type: in vivo, Diabrotica barberi; details: August 5 (Table 10); 100 mg per trap; n = 4
Experimental: as §5, §6

[5] = system: southern corn rootworm (SCR) adults; test: as above; assay type: in vivo, Diabrotica undecimpunctata howardi; details: 100 mg per trap, n = 4; for Mean number of SCR per sticky trap after 24 hours: August 5 (Table 10)
Experimental: as §5, §6

D. barberi = test: Sticky trap attraction in prairie habitat, Trelease Woods (Example 2); assay type: in vivo, Diabrotica barberi; details: August 14, 1987; 100 mg per trap; n = 4
Experimental: (§7) The candidate lures in all experiments were purchased commercially and exceeded 98% purity. The test chemicals were applied by capillary micropipettes to cotton dental wicks which were attached to the tops of 1.0 liter cylindrical paper cartons covered with TangleTrap™ (Tanglefoot Co., Grand Rapids, Mich.). The sticky trap techniques used were as described in Example 1. Cinnamyl alcohol and para-methoxycinnamaldehyde, which are solids, were dissolved in glass-distilled acetone prior to dosing the cotton wicks. […]. Control traps had untreated cotton wicks. Four replicates of treated and untreated traps were randomly positioned 10 meters apart on top of 1 m high posts along the border of a eight foot wide strip cut through the middle of a 4.05 ha relict prairie at Trelease Woods (ca. two miles northeast of Urbana, Ill.). The field consisted primarily of Andropogon gerardii Vitman (big bluestem) and a variety of composites. The tests were conducted in mid-August of two years and were timed to coincide with the presence of D. cristata and D. barberi adults in the flower heads of Canada thistle (Carduus arvensis Robson). In the second year, several new attractants of D. v. virgifera and D. barberi were tested in Trelease Woods and along the edge of a 0.8 ha field of hybrid corn located at the Pomology South Farms, Urbana, Ill. Attraction of Diabrotica species to the various lures was measured by the mean number of beetles caught after 24-h. On one date in late August of the first year, D. cristata and D. barberi were removed from the traps and sexed in the laboratory. The significance of treatments in all tests was determined by an analysis of variance and the individual means were separated by Duncan's multiple range test (Statistical Package for Social Science, Nie, et al., SPSS: statistical package for the social sciences, 2nd ed. McGraw-Hill, New York (1975). Data were logarithmically transformed for statistical analysis and the means and standard deviations are presented for the untransformed data.

D. v. virgifera = test: as above; assay type: in vivo, Diabrotica virgifera virgifera; details: August 14, 1987; 100 mg per trap; n = 4
Experimental: as §7

D. u. howardi = test: as above; assay type: in vivo, Diabrotica undecimpunctata howardi; details: August 14, 1987; 100 mg per trap; n = 4
Experimental: as §7

D. cristata = test: as above; assay type: in vivo, Diabrotica cristata; details: August 14, 1987; 100 mg per trap; n = 4
Experimental: as §7

[6] = August 4, second year, each compound 20 mg per trap
[7] = August 7, second year, each compound 20 mg per trap
[8] = August first year, South Farms, 24 h, single compounds 100 mg per trap, mixture 20 mg of each component
[9] = August first year, single compounds 100 mg per trap, mixture 20 mg each component

SMILES	Attractant Rating SCR (by limit of response) (SCR)	Attractant Rating WCR (by limit of response) (WCR)	Attractant Rating NCR (by limit of response) (NCR)	Mean number of WCR per sticky trap after 24 hours [3]	Mean number of NCR per sticky trap after 24 hours [4]	Mean number of SCR per sticky trap after 24 hours [5]	other results
O=CCc1ccccc1 [Phenylacetaldehyde]	+2 (10-30)	0 (200)	0 (200)				relative percent activity (SCR) as compared with the highest mean value for the test date [1, 6]: 8%; Mean number of SCR per trap (±standard deviation) [1, 6]: 3.0 ± 1.2 per trap; relative percent activity (SCR) as compared with the highest mean value for the test date [1, 7]: 12%; Mean number of SCR per trap (±standard deviation) [1, 7]: 5.3 ± 3.2 per trap; Mean number of SCR per trap (±standard deviation) [1, 8]: 2.5 ± 1.9 per trap; relative percent activity of the mean SCR trap catch as compared with the highest mean value in the column [1, 9]: 12%; relative percent activity (WCR) as compared with the highest mean value for the test date [2, 6]: 35%; Mean number of WCR per trap (±standard deviation) [2, 6]: 17.8 ± 7.9 per trap; relative percent activity (WCR) as compared with the highest mean value for the test date [2, 7]: 42%; Mean number of WCR per trap (±standard deviation) [2, 7]: 13.3 ± 8.1 per trap; Mean number of WCR per trap (±standard deviation) [2, 8]: 1.8 ± 1.3 per trap; relative percent activity of the mean WCR trap catch as compared with the highest mean value in the column [2, 9]: 26%
N#CC=Cc1ccccc1 [X, cinnamonitrile]				37.8 ± 7.8^cd per sticky trap	0.3 ± 0.5^a per sticky trap	47.5 ± 15.4^cd per sticky trap	Mean number of WCR adults per sticky trap (±standard deviation) after 24 hours ([3]; August 4 second year): 32.7 ± 11.4^bc per sticky trap; Mean number of WCR adults per sticky trap (±standard deviation) after 24 hours ([3]; August 5 first year): 1.5 ± 6.6^ab per sticky trap; Mean number of SCR adults per sticky trap (±standard deviation) after 24 hours ([5]; August 4 second year): 59.5 ± 49.0^c per sticky trap; Mean number of SCR adults per sticky trap (±standard deviation) after 24 hours ([5]; August 5 first year): 156.0 ± 37.2^c per sticky trap
CC(=O)OCC=Cc1ccccc1 [XIX, cinnamyl acetate]				24.0 ± 1.07^b per sticky trap	5.7 ± 2.9^b per sticky trap	6.0 ± 1.5^a per sticky trap	
COC(=O)C=Cc1ccccc1 [XV, cinnamic acid methyl ester]				9.5 ± 4.5^a per sticky trap	0.5 ± 0.6^a per sticky trap	2.0 ± 0.8^a per sticky trap	Mean number of WCR adults per sticky trap (±standard deviation) after 24 hours ([3]; September 11): 1.7 ± 1.7^a per sticky trap; Mean number of SCR adults per sticky trap (±standard deviation) after 24 hours ([5]; September 11): 3.2 ± 1.7^ab per sticky trap
O=C(O)C=Cc1ccccc1 [XX, cinnamic acid]				12.7 ± 4.9^a per sticky trap	1.7 ± 1.0^a per sticky trap	1.7 ± 0.5^a per sticky trap	
CCC/C=C/C=O [trans-2-hexenal]	0 (200)	0 (200)	0 (200)				
CCC/C=C/CO [trans-2-hexenol]	+1 (30-100)	+1 (30-100)	0 (200)				
CC(=O)/C=C/C1C(C)=CCCC1(C)C (stereo not drawn) [α-ionone]	0 (200)	0 (200)	0 (200)				Mean number of D. barberi per day (±standard deviation) (D. barberi): 0.3 ± 0.5^a per day; Mean number of D. v. virgifera per day (±standard deviation) (D. v. virgifera): 0.0^a per day; Mean number of D. u. howardi per day (±standard deviation) (D. u. howardi): 0.0^a per day; Mean number of D. cristata per day (±standard deviation) (D. cristata): 2.8 ± 2.1^a per day
